# Data taken from ChEMBL document CHEMBL5331078, “1-Benzyloxy-5-phenyltetrazole derivatives highly active against androgen receptor-dependent prostate cancer cells” (Eur J Med Chem, 2023).
# Calls of active or inactive are those of the source. The calls are words filed in the database; no cut-off is given here.
# Experiments:
# CWR22R [1] = assay: Antiproliferative activity against AR-v7 positive human 22Rv1 cells measured after 3 days by celltiter-glo luminescence assay; assay type: functional, cell-based; details: Homo sapiens, 22Rv1, 72 h; read-out: IC50
# [2] = AUC (0 to infinity) in rat at 5 mg/kg, iv measured upto 24 hrs by LC-MS/MS analysis; assay type: ADME, organism-based; design: time < 24 hrs, dose 5 mg/kg, route iv; details: in vivo
# CWR22R [3] = assay: Downregulation of androgen receptor in human 22Rv1 cells measured for 24 to 36 hrs by Western blot analysis; assay type: functional, cell-based; details: dose 0.5-10 µM, time 24-36 hrs
# CWR22R [4] = assay: Downregulation of AR genes expression in human 22Rv1 cells at 1 uM measured after 24 to 36 hrs by RNA sequencing analysis; assay type: functional, cell-based; details: time 24-36 hrs
# CWR22R [5] = assay: Downregulation of CDC6 gene expression in human 22Rv1 cells at 1 uM measured after 24 to 36 hrs by RNA sequencing analysis; assay type: functional, cell-based; details: time 24-36 hrs
# CWR22R [6] = assay: Downregulation of GREB1L gene expression in human 22Rv1 cells at 1 uM measured after 24 to 36 hrs by RNA sequencing analysis; assay type: functional, cell-based; details: time 24-36 hrs
# CWR22R [7] = assay: Downregulation of E2F gene expression in human 22Rv1 cells at 1 uM measured after 24 to 36 hrs by RNA sequencing analysis; assay type: functional, cell-based; details: time 24-36 hrs
# CWR22R [8] = assay: Downregulation of DDC gene expression in human 22Rv1 cells at 1 uM measured after 24 to 36 hrs by RNA sequencing analysis; assay type: functional, cell-based; details: time 24-36 hrs
# CWR22R [9] = assay: Downregulation of MCM10 gene expression in human 22Rv1 cells at 1 uM measured after 24 to 36 hrs by RNA sequencing analysis; assay type: functional, cell-based; details: time 24-36 hrs
# CWR22R [10] = assay: Downregulation of BRCA1 gene expression in human 22Rv1 cells at 1 uM measured after 24 to 36 hrs by RNA sequencing analysis; assay type: functional, cell-based; details: time 24-36 hrs
# CWR22R [11] = assay: Downregulation of MYC gene expression in human 22Rv1 cells at 1 uM measured after 24 to 36 hrs by RNA sequencing analysis; assay type: functional, cell-based; details: time 24-36 hrs
# CWR22R [12] = assay: Downregulation of BRCA2 gene expression in human 22Rv1 cells at 1 uM measured after 24 to 36 hrs by RNA sequencing analysis; assay type: functional, cell-based; details: time 24-36 hrs
# CWR22R [13] = assay: Downregulation of CDK2 gene expression in human 22Rv1 cells at 1 uM measured after 24 to 36 hrs by RNA sequencing analysis; assay type: functional, cell-based; details: time 24-36 hrs
structure (smiles),measurement,setting,value
Clc1ccc(COn2nnnc2-c2ccc(Cl)cc2)cc1,IC50,CWR22R [1],11 nM
same,AUC(0-inf),[2],1100 ng·h/mL
same,Activity,CWR22R [3],Dose-Dependent Effect
same,Activity,CWR22R [4],Active
same,Activity,CWR22R [5],Active
same,Activity,CWR22R [6],Active
same,Activity,CWR22R [7],Active
same,Activity,CWR22R [8],Active
same,Activity,CWR22R [9],Active
same,Activity,CWR22R [10],Active
same,Activity,CWR22R [11],Active
same,Activity,CWR22R [12],Active
same,Activity,CWR22R [13],Active
